According to ChEMBL document CHEMBL3860078, “Thioflavones as novel neuroprotective agents” (Bioorg Med Chem, 2016):
Active and inactive are the calls of the source. The rule behind the calls is not given here.

Columns and labels:
[1] = target: Serine/threonine-protein kinase mTOR (Homo sapiens) (UniProt P42345); test: Induction of mTOR phosphorylation in human SH-SY5Y cells at 3 uM preincubated for 24 hrs followed by H2O2 addition for 1 hr by pathscan sandwich immunoassay; type: cell-based
[2] = Antioxidant activity assessed as DPPH free radical scavenging activity at 3 uM after 30 mins incubation in dark; type: functional
[3] = Neuroprotective activity against H2O2-induced oxidative stress in human SH-SY5Y cells assessed as cell viability at 3 uM preincubated for 24 hrs followed by H2O2 addition for 1 hr measured after 17 hrs by MTT assay relative to control; type: functional; details: read-out: Activity
[4] = Metal chelating activity assessed as Fe2+-compound complex fromation at 3 uM incubated for 5 mins in presence of ferrous chloride hexahydrate followed by ferrozine addition measured after 10 mins; type: physicochemical
[5] = Metal chelating activity assessed as Fe2+-compound complex fromation incubated for 5 mins in presence of ferrous chloride hexahydrate followed by ferrozine addition measured after 10 mins
[6] = Neurotoxicity against human SH-SY5Y cells assessed as reduction in cell viability at 3 to 10 uM after 24 hrs by MTT assay; type: toxicity, cell-based
[7] = Neuroprotective activity in human SH-SY5Y cells assessed as protection against H2O2-induced oxidative stress at 0.3 uM preincubated for 24 hrs followed by H2O2 addition for 1 hr measured after 17 hrs by MTT assay relative to control; type: functional, cell-based
[8] = target: Proline-rich AKT1 substrate 1 (Homo sapiens) (UniProt Q96B36); test: Induction of PRAS40 phosphorylation in human SH-SY5Y cells at 3 uM preincubated for 24 hrs followed by H2O2 addition for 1 hr by pathscan sandwich immunoassay; type: cell-based
SH-SY5Y = test: Induction of AMPKalpha phosphorylation in human SH-SY5Y cells at 3 uM preincubated for 24 hrs followed by H2O2 addition for 1 hr by pathscan sandwich immunoassay; type: cell-based
[9] = target: Mitogen-activated protein kinase; ERK1/ERK2 (Homo sapiens) (UniProt P27361+P28482); test: Induction of ERK1/2 phosphorylation in human SH-SY5Y cells at 3 uM preincubated for 24 hrs followed by H2O2 addition for 1 hr by pathscan sandwich immunoassay; type: cell-based
Sequence of Mitogen-activated protein kinase; ERK1/ERK2 (Homo sapiens) (P27361 whole entry, looked up): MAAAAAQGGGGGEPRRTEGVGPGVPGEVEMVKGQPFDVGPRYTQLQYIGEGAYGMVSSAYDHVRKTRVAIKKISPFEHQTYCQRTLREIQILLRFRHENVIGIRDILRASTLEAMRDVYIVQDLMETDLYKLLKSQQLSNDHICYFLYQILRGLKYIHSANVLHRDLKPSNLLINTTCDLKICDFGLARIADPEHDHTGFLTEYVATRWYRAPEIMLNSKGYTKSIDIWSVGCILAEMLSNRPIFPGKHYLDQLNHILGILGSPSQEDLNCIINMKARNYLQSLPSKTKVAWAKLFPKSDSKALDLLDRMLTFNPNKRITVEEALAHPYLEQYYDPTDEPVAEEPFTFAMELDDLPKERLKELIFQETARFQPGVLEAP
Sequence of Mitogen-activated protein kinase; ERK1/ERK2 (Homo sapiens) (P28482 whole entry, looked up): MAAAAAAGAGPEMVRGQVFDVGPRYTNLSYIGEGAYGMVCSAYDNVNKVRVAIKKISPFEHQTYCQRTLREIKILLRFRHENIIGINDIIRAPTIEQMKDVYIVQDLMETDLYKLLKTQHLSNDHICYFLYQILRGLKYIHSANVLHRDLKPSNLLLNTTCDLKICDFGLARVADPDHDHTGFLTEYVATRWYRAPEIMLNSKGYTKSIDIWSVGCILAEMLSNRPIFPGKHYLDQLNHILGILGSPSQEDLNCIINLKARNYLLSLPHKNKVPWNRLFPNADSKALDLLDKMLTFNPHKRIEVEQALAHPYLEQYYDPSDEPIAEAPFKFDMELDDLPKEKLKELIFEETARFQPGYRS

[10] = target: T1, Bcl2-associated agonist of cell death (Homo sapiens) (UniProt Q92934); test: Induction of BAD phosphorylation in human SH-SY5Y cells at 3 uM preincubated for 24 hrs followed by H2O2 addition for 1 hr by pathscan sandwich immunoassay; type: cell-based
T1 sequence (whole entry): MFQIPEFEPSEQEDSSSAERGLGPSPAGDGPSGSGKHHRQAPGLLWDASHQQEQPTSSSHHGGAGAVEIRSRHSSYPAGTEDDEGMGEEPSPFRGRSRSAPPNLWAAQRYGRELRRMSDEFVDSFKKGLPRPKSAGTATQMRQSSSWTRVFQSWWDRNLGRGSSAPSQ

[11] = Antioxidant activity assessed as DPPH free radical scavenging activity after 30 mins incubation in dark; type: functional
[12] = Neurotoxicity against human SH-SY5Y cells assessed as reduction in cell viability at 10 uM after 24 hrs by MTT assay; type: toxicity, cell-based
[13] = Antioxidant activity assessed as DPPH free radical scavenging activity after 30 mins incubation in dark by UV-Vis spectrophotometric analysis; type: functional

SMILES | Activity [2] [%] | viability at 3 µM [3] [%] | Activity [4] [%] | Activity [6] | also measured
O=c1cc(-c2ccc(Cl)cc2)oc2c(O)c(O)ccc12 | 1.4 | 93.4 | 3.7 | – | Activity [1]: Active
O=c1cc(-c2ccccc2)oc2cc(O)cc(O)c12 [CHRYSIN] | – | < 50 | – | – | –
Oc1ccc2c(=S)cc(-c3ccco3)oc2c1O | – | < 60 | – | – | –
O=C(O)CN(CCN(CC(=O)O)CC(=O)O)CC(=O)O [EDETIC ACID] | – | – | 6.9 | – | IC50 [5]: 42 µM
Oc1ccc2c(=S)cc(-c3ccccc3)oc2c1O | – | 72.4 | – | – | –
O=c1cc(-c2ccc(Br)cc2)oc2c(O)c(O)ccc12 | – | 84 | – | Non-Toxic | –
Oc1ccc2c(=S)cc(-c3ccc(Cl)cc3)oc2c1O | 1.7 | 107 | 5 | Non-Toxic | Activity [7]: > 70%; Activity [8]: Active; Activity (SH-SY5Y): Active; Activity [1]: Active; Activity [9]: Active; Activity [10]: Active
Oc1ccc2c(=S)cc(-c3ccc(F)cc3)oc2c1O | – | 97.4 | – | Non-Toxic | –
Oc1cc(O)c2c(=S)cc(-c3ccc(O)c(O)c3)oc2c1 | – | 67.4 to 73 | – | Non-Toxic | –
O=C1O[C@H]([C@@H](O)CO)C(O)=C1O [ASCORBIC ACID] | 1.3 | – | – | – | IC50 [11]: 330 µM
N#Cc1ccc(-c2cc(=O)c3ccc(O)c(O)c3o2)cc1 | – | 84.6 | – | – | –
O=c1cc(-c2ccc(F)cc2)oc2c(O)c(O)ccc12 | – | 88.8 | – | Non-Toxic | –
Oc1cc(O)c2c(=S)cc(-c3ccccc3)oc2c1 | – | < 50 | – | – | –
O=c1cc(-c2cccs2)oc2c(O)c(O)ccc12 | – | < 60 | – | – | –
Oc1ccc2c(=S)cc(-c3cccs3)oc2c1O | – | < 60 | – | – | –
Oc1ccc2c(=S)cc(-c3ccc(Br)cc3)oc2c1O | 1.6 | 97.8 | 4.4 | – | Activity [12]: 52%; Activity [10]: Active
O=c1cc(-c2ccco2)oc2c(O)c(O)ccc12 | – | < 60 | – | – | –
O=c1cc(-c2ccccc2)oc2c(O)c(O)ccc12 [7,8-DIHYDROXYFLAVONE] | 1.4 | 96.2 to 97 | 3.7 | Non-Toxic | IC50 [13]: 15.5 µM; Activity [10]: Active
Oc1ccc2c(=S)cc(-c3cccnc3)oc2c1O | – | < 60 | – | – | –
N#Cc1ccc(-c2cc(=S)c3ccc(O)c(O)c3o2)cc1 | 1.3 | 106 | 3.9 | Non-Toxic | Activity [7]: > 70%; Activity (SH-SY5Y): Active; Activity [1]: Active; Activity [9]: Active
O=c1cc(-c2cccnc2)oc2c(O)c(O)ccc12 | – | < 60 | – | – | –
O=c1cc(-c2ccc(O)c(O)c2)oc2cc(O)cc(O)c12 [LUTEOLIN] | 1.9 | 98.3 | 3.4 | – | –
